Data on two compounds can be found in patent publication US5047398A, “DDAVP antidiuretic and method therefor” (Ferring B.V., priority 1983, dated 1991).

Like-named read-outs stand apart in the source and are kept apart here.

In data set [1] the test system is healthy subjects. In kind it is in vivo, human. The method, then: Ten healthy subjects of both sexes, aged 18 through 43 were treated with DDAVP and 4-Asn-DDAVP.
One to two hours after a normal breakfast, the subjects were hydrated by drinking the volume of tap water that corresponded to 2% of their body weight. Every 15 minutes, urine was collected and its volume and osmolality were measured using an Advanced Osmometer Model 3D11. In order to overhydrate themselves, the subjects substituted their loss of fluid by drinking a volume of tap water that corresponded to the amount of urine collected. After about 40 to 45 minutes, the diuresis increased to about 200 milliliters per 15 minute period. At that time, DDAVP or 4-Asn-DDAVP in amounts of from 20 to 200 micrograms was administered perorally in 50 milliliters of distilled water. The DDAVP and 4-Asn-DDAVP were supplied by Ferring AB in lyophilized powder form which could easily be dissolved in water. The water diuresis was followed continually up to 6 hours.

For data set [2], the system named is healthy subjects. Kind of data set: Water diuresis in overhydrated subjects after injection through a duodenal tube. In kind it is in vivo, human. Conditions: 200 micrograms in 10 ml water through duodenal tube, two subjects. The method, then:
Two of the subjects were supplied with a duodenal tube which was inserted through the nose. The end of the tube was placed with the help of X-rays in the distal part of the duodenum. Overhydration and urine sampling were then carried out as described above. […] After this, 200 micrograms of DDAVP dissolved in 10 milliliters of water were injected through a tube.

The conditions of data set [3]: in vivo; cited from earlier work.

“1-deamino-4-asparagine-8-D-arginine-vasopressin [Example 4-Asn-DDAVP]”: the “therapeutic (antidiuretic) effect” value in data set [1] (oral, dose of 100 micrograms) is recorded as “no therapeutic effect”. Moreover, the antidiuretic effect entry in data set [1] (oral, doses 20 to 200 micrograms, effect only with the highest dose) was “only a moderate, extremely short-lived, effect”.
For the compound `NC(=O)CC[C@@H]1NC(=O)[C@H](Cc2ccccc2)NC(=O)[C@H](Cc2ccc(O)cc2)NC(=O)CCSSC[C@@H](C(=O)N2CCC[C@H]2C(=O)N[C@H](CCCN=C(N)N)C(=O)NCC(N)=O)NC(=O)[C@H](CC(N)=O)NC1=O` [DDAVP, 1-deamino-8-D-arginine vasopressin], the “antidiuretic response with increase in osmolality and conductivity of urine” value in data set [2] was “immediate antidiuretic response”. In data set [3], the antidiuretic activity entry is “high and specific antidiuretic activity”. Further, the side-effects result in data set [1] (human, in vivo) is given as “no side-effects were experienced”. Besides, the “therapeutic (antidiuretic) effect” value in data set [1] (peroral, 20 microgram dosage) is on record as “therapeutic effect was obtained”. Also, in data set [1] (peroral, 20 to 200 micrograms in 50 ml distilled water), the “dose dependence of antidiuretic response (magnitude and duration)” value is reported as “dosedependent effect”. The “duration of antidiuretic effect” value in data set [1] (peroral, 20 to 200 micrograms, diuresis followed up to 6 hours) is reported as “at least 6 hours”.
